Test results reported in patent US20190336490A1, “COMPOSITIONS AND METHODS FOR INCREASING REMYELINATION” (Frequency Therapeutics, Inc., priority 2018, published 2019).

What was measured:
muscarinic M1 receptor = target: T1, muscarinic M1 receptor (Homo sapiens, UniProt P11229); settings: cited from earlier work
T1 sequence (P11229 1-460): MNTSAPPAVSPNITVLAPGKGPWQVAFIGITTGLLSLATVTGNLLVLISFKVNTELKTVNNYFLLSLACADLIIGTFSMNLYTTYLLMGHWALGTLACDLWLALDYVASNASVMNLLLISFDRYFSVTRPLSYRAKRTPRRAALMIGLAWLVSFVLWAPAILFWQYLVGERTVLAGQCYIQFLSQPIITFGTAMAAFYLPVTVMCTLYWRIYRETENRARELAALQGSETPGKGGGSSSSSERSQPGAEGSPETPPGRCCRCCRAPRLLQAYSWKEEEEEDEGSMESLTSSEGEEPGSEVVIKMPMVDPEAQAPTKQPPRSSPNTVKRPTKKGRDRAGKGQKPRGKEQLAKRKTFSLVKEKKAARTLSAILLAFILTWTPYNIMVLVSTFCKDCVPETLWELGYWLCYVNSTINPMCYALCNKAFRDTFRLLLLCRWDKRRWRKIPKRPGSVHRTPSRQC

[1] = system: OPC (oligodendrocyte precursor cell); test: OPC Cell Activity; type: cell-based
[2] = system: Rat primary optic nerve oligodendrocyte progenitor cells (OPCs); test: OPC differentiation assay (MBP staining); type: cell-based; settings: 6 days

Compound	In vitro M1 (Conc) (muscarinic M1 receptor)	OPC Cell Activity ([1]; Table 1, in words)	other results
CCN(CC)CC1CCCCN1CC(=O)N1c2ccccc2C(=O)Nc2cccnc21 (stereo not shown) [AF-DX 116]	417 nM	–	–
O=C(O[C@H]1C[N+]2(CCCOc3ccccc3)CCC1CC2)C(O)(c1cccs1)c1cccs1 [Aclidinium bromide]	0.10 nM	–	–
CC(CN(C)C)CN1c2ccccc2Sc2ccccc21 (stereo not shown) [Alimemazine]	398 nM	–	–
CN1[C@@H]2CC[C@H]1C[C@@H](OC(=O)C(CO)c1ccccc1)C2 (stereo partly shown) [Atropine]	–	–	OPC Cell Activity ([1]; Table 1): 5700 nM
CN1CCCC(n2nc(Cc3ccc(Cl)cc3)c3ccccc3c2=O)CC1 (stereo not shown) [Azelastine]	4,200 nM	–	–
CN1[C@@H]2CC[C@H]1C[C@@H](OC(c1ccccc1)c1ccccc1)C2 [Benztropine]	–	–	OPC Cell Activity ([1]; Table 1): 170 to 350 nM
C[N+]1(C)CCCCC1COC(=O)C(O)(c1ccccc1)c1ccccc1 (stereo not shown) [Bevonium]	–	Active	–
OC(CCN1CCCCC1)(c1ccccc1)C1CC2C=CC1C2 (stereo not shown) [Biperiden]	0.85 nM	–	–
CN(C)CCOC(c1ccc(Cl)cc1)c1ccccn1 (stereo not shown) [Carbinoxamine]	740 nM	–	–
CN(C)CCCN1c2ccccc2Sc2ccc(Cl)cc21 [Chlorpromazine]	–	Active	–
Clc1ccc(Cn2c(CN3CCCC3)nc3ccccc32)cc1 [Clemizole]	–	–	OPC Cell Activity ([1]; Table 2, in words): Active
NC(=NCc1ccc(Cl)cc1)SCCCc1cnc[nH]1 [Clobenpropit]	–	–	OPC Cell Activity ([1]; Table 2): 125 nM
CC(CN(C)C)CN1c2ccccc2Sc2ccc(C#N)cc21 (stereo not shown) [Cyamemazine]	11 nM	–	–
NC(=O)C(c1ccccc1)(c1ccccc1)[C@@H]1CCN(CCc2ccc3c(c2)CCO3)C1 [Darifenacin]	–	Active	–
CC(C1=C(CCN(C)C)Cc2ccccc21)c1ccccn1 (stereo not shown) [Dimetindene]	320 nM	–	–
CN1CCC(OC(c2ccccc2)c2ccccc2)CC1 [Diphenylpyraline]	–	Active	–
CN(C)CCC[C@@]1(c2ccc(F)cc2)OCc2cc(C#N)ccc21 [Escitalopram]	–	Active	–
O=C1CCCN1c1ccc(Oc2ccc3c(c2)CCN(C2CCC2)CC3)nc1 [GSK-239512]	–	–	OPC Cell Activity ([1]; Table 2): 120 to 160 nM
c1cc2c(cc1-c1noc(CC3CCN(C4CCC4)CC3)n1)OCO2 [GSK-247246]	–	–	OPC Cell Activity ([1]; Table 2): 25 to 100 nM
C[N+]1(C)CCC(OC(=O)C(O)(c2ccccc2)C2CCCC2)C1 (stereo not shown) [Glycopyrronium bromide]	0.42 nM	–	–
CN1CCCN(C(c2ccccc2)c2ccc(Cl)cc2)CC1 (stereo not shown) [Homochlorcyclizine]	22 nM	–	–
OCCOCCN1CCN(C(c2ccccc2)c2ccc(Cl)cc2)CC1 (stereo not shown) [Hydroxyzine]	3,800 nM	Active	–
CN1[C@@H]2CC[C@H]1C[C@@H](OC(=O)[C@H](CO)c1ccccc1)C2 [Hyoscyamine]	–	Active	–
CC(C)[N+]1(C)[C@@H]2CC[C@H]1C[C@@H](OC(=O)C(CO)c1ccccc1)C2 (stereo partly shown) [Ipratropium]	1.31 nM	Active	–
C[C@@H]1CCCN1CCCOc1ccc(-c2ccc(=O)[nH]n2)cc1 [Irdabisant]	–	–	OPC Cell Activity ([1]; Table 2): 250 nM
CC(CN1c2ccccc2Sc2cccnc21)N(C)C (stereo not shown) [Isothipendyl]	74 nM	–	–

Compound	In vitro M1 (Conc) (muscarinic M1 receptor)	OPC Cell Activity ([1]; Table 1, in words)	other results
CN(CCCN1c2ccccc2CCc2ccccc21)CC(=O)c1ccc(Cl)cc1 [Lofepramine]	67 nM	–	–
CN1CCc2c(c3ccccc3n2Cc2ccccc2)C1 [Mebhydrolin]	180 nM	–	–
C[N+]1(C)CCCC(OC(=O)C(O)(c2ccccc2)c2ccccc2)C1 (stereo not shown) [Mepenzolate]	27 nM	Active	–
c1ccc2c(c1)Sc1ccccc1N2CC1CN2CCC1CC2 (stereo not shown) [Mequitazine]	5.0 nM	–	–
CN1CCCCC1CCN1c2ccccc2Sc2ccc([S+](C)[O-])cc21 (stereo not shown) [Mesoridazine]	10 nM	–	–
C[N+]1(C)[C@@H]2CC[C@H]1C[C@@H](OC(=O)C(CO)c1ccccc1)C2 (stereo partly shown) [Methylatropine]	–	Active	–
CCCC(CCC)C(=O)O[C@H]1C[C@H]2CC[C@@H](C1)[N+]2(C)C [Octatropine methylbromide]	–	Active	–
CCCCCCCCOc1ccccc1C(=O)Nc1ccc(C(=O)OCC[N+](C)(CC)CC)cc1 [Octylonium bromide]	2 nM	Active	–
CCN(CC)CC#CCOC(=O)C(O)(c1ccccc1)C1CCCCC1 (stereo not shown) [Oxybutynin]	–	–	OPC Cell Activity ([1]; Table 1): 670 nM
CCN(CC)CCOCCOC(=O)C1(c2ccccc2)CCCC1 [Pentoxyverine, carbetapentane, Pentoxyverine]	13 to 76 nM	–	OPC Cell Activity ([1]; Table 1): 260 nM
CCN1CCCC(OC(=O)C(c2ccccc2)c2ccccc2)C1 (stereo not shown) [Piperidolate]	–	Active	–
Clc1ccc(CCCOCCCN2CCCCC2)cc1 [Pitolisant (tiprolisant), Pitolisant]	–	–	OPC Cell Activity ([1]; Table 2): 14 to 100 nM; dose sparing activity with respect to the other agent ([2]; clemastine fumarate 0 to 5 μM combined with pitolisant hydrochloride 0 to 2 μM): dose sparing activity; OPC differentiation (% of MBP+ cells) ([2]; pitolisant hydrochloride alone, 0 to 2 μM): induce OPC differentiation
CCCNCC(O)COc1ccccc1C(=O)CCc1ccccc1 (stereo not shown) [Propafenone]	–	Active	–
CC(C)[N+](C)(CCOC(=O)C1c2ccccc2Oc2ccccc21)C(C)C [Propantheline]	0.22 nM	–	OPC Cell Activity ([1]; Table 1): 1250 to 2950 nM
CCCOC(C(=O)OC1CCN(C)CC1)(c1ccccc1)c1ccccc1 [Propiverine]	619 nM	–	OPC Cell Activity ([1]; Table 1): 420 nM
OCCOCCN1CCN(C2=Nc3ccccc3Sc3ccccc32)CC1 [Quetiapine]	–	Active	–
CN1[C@@H]2C[C@@H](OC(=O)[C@H](CO)c3ccccc3)C[C@H]1[C@@H]1O[C@@H]12 [Scopolamine]	–	–	OPC Cell Activity ([1]; Table 1): 5100 nM
O=C(O[C@H]1CN2CCC1CC2)N1CCc2ccccc2[C@@H]1c1ccccc1 [Solifenacin]	25 nM	Active	–
C[N+]1(C)[C@@H]2C[C@@H](OC(=O)C(O)(c3cccs3)c3cccs3)C[C@H]1[C@@H]1O[C@@H]12 [Tiotropium bromide]	0.13 nM	Active	–
Cc1ccc(O)c([C@H](CCN(C(C)C)C(C)C)c2ccccc2)c1 [Tolterodine]	190 nM	–	–
OC(CCN1CCCCC1)(c1ccccc1)C1CCCCC1 (stereo not shown) [Trihexyphenidyl]	–	Active	–
CN(C)CCN(Cc1ccccc1)c1ccccn1 [Tripelennamine]	1,3000 nM	Active	–
Cc1ccc(/C(=C\CN2CCCC2)c2ccccn2)cc1 [Triprolidine]	15000 nM	–	–
O=C(CCNS(=O)(=O)c1cccc2nsnc12)N1CCN(c2ccncc2)CC1 [VU0409774]	690 nM	–	–
Cc1noc(C)c1S(=O)(=O)N1CCN(c2ccc(N3CCCC(C)(C)C3)nn2)CC1 [VU6009833]	288 nM	–	–
Aminobenzotropine	–	Active	–
